# According to PubChem BioAssay AID2250 (Sanford-Burnham Center for Chemical Genomics, 2010):
# Active and inactive are the calls of the source. The rule behind the calls is not given here.
# System: MCF-7/NOD1 cells, GM-Tri-DAP induced IL-8 secretion
# Assay: inhibition of NOD1-driven IL-8 release, SAR follow-up, MCF-7/NOD1 cells, GM-Tri-DAP stimulus (AID 2250)
row,SMILES,IC50
1,O=C(O)c1c(NC(=O)N2CCOCC2)sc2c1CCCC2,> 25 µM (inactive)
2,Cc1ccc(S(=O)(=O)n2c(N)nc3cc(C)c(C)cc32)cc1,> 5 µM (inactive)
